{
  "source": "patent US20240197661A1",
  "about": "“ORAL DOSAGE FORMS OF METHYL HYDROGEN FUMARATE AND PRODRUGS THEREOF” (Arbor Pharmaceuticals, LLC, priority 2012, published 2024)",
  "key": {"[1]": {"test_system": "subjects with moderate-to-severe plaque psoriasis", "assay": "24-week placebo-controlled efficacy study in plaque psoriasis", "format": "in vivo, human", "conditions": "for patients achieving PASI-75 / patients achieving an IGA score of 0 or 1: week 24", "procedure": "(§1) Study subjects were enrolled at 76 US sites. Patients had chronic plaque psoriasis for more than 6 months, PASI (Psoriasis Area and Severity Index) scores ≥12, IGA (Investigator's Global Assessment) Scores ≥3, and psoriasis BSA (Body Surface Area) ≥10%. Altogether 426 subjects were randomized in a 1:1:1:1 ratio into 4 dose arms: 400 mg QD, 400 mg BID, 600 mg BID, and placebo. A 5-week titration phase was followed by 19 weeks of treatment. The co-primary end points at week 24 were the percentages of patients achieving an at least 75% reduction of their baseline PASI (“PASI-75”) and an IGA score of ‘clear’ or ‘almost clear’ (i.e., 0 or 1)."}, "[2]": {"test_system": "healthy adult subjects", "assay": "safety and tolerability in single-dose food effect study", "format": "in vivo, human", "conditions": "single 100 mg dose, fed and fasted", "from_the_text": "Twelve healthy adult volunteers (males and females) participated in the study. All twelve subjects received […] a dosage form of Example 3, once in a fed condition and once in a fasted condition, with a two-week washout between treatments. The fasted dosing was achieved by dosing the subject following an overnight fast while the fed dosing was achieved by dosing the subject after consuming a high fat-content breakfast.\nAll 12 subjects completed the dosing period. All adverse events were mild."}, "[3]": {"assay": "degradation of MHF prodrugs in pH 6.0 phosphate buffer with sodium acetate", "description": "Each prodrug was placed in a pH 6.0 phosphate buffer with multiple concentrations of sodium acetate (0.0 M, 0.1 M, 0.5 M, 2.0 M, 3.0 M, and 4.0 M) at 40° C. The presence of prodrug was measured over time up to 42 hours. The rate of prodrug degradation can be expressed according to the following formula: In (A)=In (A0)−Kobs●t, wherein A is the prodrug concentration, A0 is the prodrug concentration at time zero and Kobs is the observed slope of the curve plotting In (A) versus time (t). Thus, the higher the Kobs, the more quickly the prodrug is degrading."}, "[4]": {"test_system": "subjects with moderate-to-severe plaque psoriasis", "assay": "safety (adverse events) in 24-week plaque psoriasis study", "format": "in vivo, human", "procedure": "as §1"}},
  "data": [
    {"smiles": "CCN(CC)C(=O)COC(=O)/C=C/C(=O)OC", "note": "[PPC-06, (N,N-Diethylcarbamoyl)methyl methyl (2E)but-2-ene-1,4-dioate]", "values": [
      {"measurement": "patients achieving PASI-75", "setting": "[1]; 400 mg BID, p=0.002 vs placebo", "result": 47.2, "unit": "%"},
      {"measurement": "patients achieving an IGA score of 0 or 1", "setting": "[1]; 400 mg BID, p=0.021 vs placebo", "result": 41.4, "unit": "%"},
      {"measurement": "patients achieving PASI-75", "setting": "[1]; 400 mg QD, p=0.004 vs placebo", "result": 39.7, "unit": "%"},
      {"measurement": "patients achieving an IGA score of 0 or 1", "setting": "[1]; 400 mg QD, p=0.044 vs placebo", "result": 35.7, "unit": "%"},
      {"measurement": "patients achieving PASI-75", "setting": "[1]; 600 mg BID, p=0.004 vs placebo", "result": 44.3, "unit": "%"},
      {"measurement": "patients achieving an IGA score of 0 or 1", "setting": "[1]; 600 mg BID, p=0.010 vs placebo", "result": 44.4, "unit": "%"},
      {"measurement": "efficacy compared to placebo", "setting": "[1]; 24 weeks of treatment, three dose strengths", "result": "significant efficacy compared to placebo"},
      {"measurement": "severity of adverse events", "setting": "[2]", "result": "mild"},
      {"measurement": "tolerability during the trial", "setting": "[2]", "result": "well tolerated"},
      {"measurement": "formation rates of both primary degradation products", "setting": "[3]; 14.6 hour exposure, pH 6.0, 40° C., varying acetate concentration", "result": "increased with increasing acetate concentration"},
      {"measurement": "effect of acetate on degradation rate compared to DMF", "setting": "[3]; pH 6.0, 40° C.", "result": "more pronounced"},
      {"measurement": "degradation rate (Kobs) as a function of acetate concentration", "setting": "[3]; pH 6.0 phosphate buffer, sodium acetate 0.0-4.0 M, 40° C., up to 42 hours", "result": "increased with increasing concentrations of acetate"},
      {"measurement": "patients reporting diarrhea (TEAE)", "setting": "[4]; 400 mg BID", "result": 18, "unit": "%"},
      {"measurement": "patients reporting diarrhea (TEAE)", "setting": "[4]; 400 mg QD", "result": 7, "unit": "%"},
      {"measurement": "patients reporting diarrhea (TEAE)", "setting": "[4]; 600 mg BID", "result": 23, "unit": "%"},
      {"measurement": "flushing reported", "setting": "[4]; PPC-06 treatment arms", "result": "1-2%"},
      {"measurement": "subjects developing CTCAE grade 3 lymphopenia", "setting": "[4]; during treatment, recovered on discontinuation", "result": "Two"},
      {"measurement": "new or unexpected adverse events compared to DMF drugs", "setting": "[4]; in vivo", "result": "No new or unexpected adverse events"},
      {"measurement": "severity of most cases of diarrhea", "setting": "[4]; in vivo", "result": "mild to moderate"},
      {"measurement": "nausea and abdominal pain reported", "setting": "[4]; overall PPC-06 population", "result": "less than 10%"}
    ]}
  ]
}
